The source of these data is patent US10654884B2 (Vitae Pharmaceuticals, Inc., priority 2014, dated 2020).

For the first assay, the target named is T1, human CD73 (Homo sapiens, UniProt P21589).
T1 construct: purchased R&D Systems 5795-EN-010
T1 sequence (P21589 27-549): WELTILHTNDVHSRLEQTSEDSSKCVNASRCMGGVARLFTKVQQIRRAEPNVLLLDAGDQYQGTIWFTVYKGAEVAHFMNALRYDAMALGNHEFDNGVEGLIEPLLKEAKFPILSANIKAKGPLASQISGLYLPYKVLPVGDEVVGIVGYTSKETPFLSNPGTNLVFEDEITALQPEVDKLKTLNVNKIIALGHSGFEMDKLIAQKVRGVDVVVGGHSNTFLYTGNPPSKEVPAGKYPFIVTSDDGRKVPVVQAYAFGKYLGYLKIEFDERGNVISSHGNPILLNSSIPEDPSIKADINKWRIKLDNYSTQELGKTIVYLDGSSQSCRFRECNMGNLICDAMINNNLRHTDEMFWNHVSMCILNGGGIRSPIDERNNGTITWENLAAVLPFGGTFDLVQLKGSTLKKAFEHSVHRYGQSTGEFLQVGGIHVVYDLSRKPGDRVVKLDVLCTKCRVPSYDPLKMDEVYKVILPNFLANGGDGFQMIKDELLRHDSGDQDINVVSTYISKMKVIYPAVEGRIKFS
The experiment in a line: Inhibition of 5′-Nucleotidase Activity of CD73 (Assay 1). The following applies: Assay 1: IC50, inhibition of 5′-nucleotidase activity of CD73, human CD73 4 ng/ml, 50 μM CMP, 20 min at RT, malachite green readout. It counts as biochemical. The procedure:
Inhibition of 5′-Nucleotidase Activity of CD73 (Assay 1)
Compounds of the present invention were tested for the ability to inhibit CD73 enzyme activity. Tested compounds were dissolved in DMSO (50× final concentration), and 3.2 μL of the solutions added to 96-well polystyrene plates. To these wells were added, 100 μL of human CD73 (R&D Systems Cat. No. 5795-EN-010) and 57 μL of cytidine-5′-monophosphate (CMP) solutions in assay buffer (25 mM Tris-HCl, pH 7.4, 0.005% Brij-35) were added to achieve final concentrations in the assay of 4 ng/ml CD73 and 50 μM of CMP. The assay mixture was incubated for 20 min at RT. The reaction was stopped by addition of 40 μL of malachite green reagent which was prepared by mixing together 10 ml 2M H2SO4, 2.5 ml of 15% ammonium molybdate and 0.2 ml of 11% Tween-20. The mixture was agitated vigorously for 10 min at RT, and absorbance at 620 nm was determined on a microplate spectrophotometer. […] The IC50 values were derived using a non-linear 4 parameter logistic model (XLFit software, IDBS) and correspond to the inflection points on dose-response curves.
As to `CCNc1nc(Cl)nc2c1ncn2[C@@H]1O[C@H](CO[C@@](C)(C(=O)OCC)P(=O)(O)OCC)[C@@H](O)[C@H]1O` (single isomer, unassigned) [Example 80], the IC50 (usually the concentration needed to halve the response being measured) is more than 1000 nM.

`CCNc1nc(Cl)nc2c1ncn2[C@@H]1O[C@H](CO[C@](C)(C(=O)OCC)P(=O)(O)OCC)[C@@H](O)[C@H]1O` (single isomer, unassigned) [Example 80a]: the IC50 was more than 1000 nM.

The same assay, now with this note: human CD73 4 ng/ml, 50 μM CMP, 20 min at RT, malachite green readout; read-out: Assay 1: IC50, inhibition of 5′-nucleotidase activity of CD73.
On to `CS(=O)(=O)C(OC[C@H]1O[C@@H](n2cnc3c(N)nc(Cl)nc32)[C@H](O)[C@@H]1O)P(=O)(O)O` (single isomer, unassigned) [Example 10a], for which the 50% inhibitory concentration (IC50) is more than 1000 nM.

`CCCS(=O)(=O)[C@@H](OC[C@H]1O[C@@H](n2cnc3c(N)nc(Cl)nc32)[C@H](O)[C@@H]1O)P(=O)(O)O` (single isomer, unassigned) [Example 12a]: the IC50 is more than 1000 nM.

For `CC(C)CS(=O)(=O)[C@@H](OC[C@H]1O[C@@H](n2cnc3c(N)nc(Cl)nc32)[C@H](O)[C@@H]1O)P(=O)(O)O` (single isomer, unassigned) [Example 13a], the half-maximal inhibitory concentration (IC50) was more than 1000 nM.

As to `CCOC(=O)[C@@H](OC[C@H]1O[C@@H](n2ccc(=O)n(C)c2=O)[C@H](O)[C@@H]1O)P(=O)(O)O` (single isomer, unassigned) [Example 30a], the IC50 was more than 1000 nM.

Consider `CCOC(=O)[C@@H](OC[C@@H]1O[C@H](n2cnc3c(N)nc(C)nc32)[C@@H](O)[C@H]1O)P(=O)(O)O` (single isomer, unassigned) [Example 37a], for which the IC50 was more than 1000 nM.

Consider `CCOC(=O)[C@@H](OC[C@H]1O[C@@H](n2cnc3c(N)nc(-c4ccccc4)nc32)[C@H](O)[C@@H]1O)P(=O)(O)O` (single isomer, unassigned) [Example 40a], for which the IC50 was less than 100 nM.

With `CCOC(=O)[C@@H](OC[C@H]1O[C@@H](n2cnc3c(N)nc(-c4cc(F)cc(F)c4)nc32)[C@H](O)[C@@H]1O)P(=O)(O)O` (single isomer, unassigned) [Example 41a], the IC50 is more than 1000 nM.

For `CCOC(=O)[C@@H](OC[C@H]1O[C@@H](n2cnc3c(N)nc(C(F)(F)F)nc32)[C@H](O)[C@@H]1O)P(=O)(O)O` (single isomer, unassigned) [Example 42a], the concentration for half-maximal inhibition (IC50) was more than 1000 nM.

For the compound `CCOC(=O)[C@@H](OC[C@H]1O[C@@H](n2cnc3c(N)nc(CC(C)C)nc32)[C@H](O)[C@@H]1O)P(=O)(O)O` (single isomer, unassigned) [Example 46a], the 50% inhibitory concentration (IC50) is more than 1000 nM.

For `CCOC(=O)[C@@H](OC[C@H]1O[C@@H](n2cnc3c(N)nc(C4CC4)nc32)[C@H](O)[C@@H]1O)P(=O)(O)O` (single isomer, unassigned) [Example 50a], the concentration for half-maximal inhibition (IC50) was more than 1000 nM.

In the case of `CCOC(=O)[C@@H](OC[C@H]1O[C@@H](n2cnc3c(N)nc(C4NCCO4)nc32)[C@H](O)[C@@H]1O)P(=O)(O)O` (single isomer, unassigned) [Example 51b], the half-maximal inhibitory concentration (IC50) was more than 1000 nM.

Regarding `CC(C)(C)OC(=O)[C@H](OC[C@H]1O[C@@H](n2cnc3c(N)nc(CN)nc32)[C@H](O)[C@@H]1O)P(=O)(O)O` (single isomer, unassigned) [Example 55], the IC50 was more than 1000 nM.

Consider `CC(C)(C)OC(=O)[C@@H](OC[C@H]1O[C@@H](n2cnc3c(N)nc(CN)nc32)[C@H](O)[C@@H]1O)P(=O)(O)O` (single isomer, unassigned) [Example 55a], for which the IC50 is more than 1000 nM.

Turning to `Nc1ncnc2c1ncn2[C@@H]1O[C@H](CO[C@@H](CO)P(=O)(O)O)[C@@H](O)[C@H]1O` (single isomer, unassigned) [Example 57], the IC50 was more than 1000 nM.

For `Nc1ncnc2c1ncn2[C@@H]1O[C@H](CO[C@H](CO)P(=O)(O)O)[C@@H](O)[C@H]1O` (single isomer, unassigned) [Example 57a], the IC50 is more than 1000 nM.

With `Cn1c(=O)ccn([C@@H]2O[C@H](CO[C@@H](C(=O)O)P(=O)(O)O)[C@@H](O)[C@H]2O)c1=O` (single isomer, unassigned) [Example 60], the IC50 was more than 1000 nM.

Consider `Cn1c(=O)ccn([C@@H]2O[C@H](CO[C@H](C(=O)O)P(=O)(O)O)[C@@H](O)[C@H]2O)c1=O` (single isomer, unassigned) [Example 60a], for which the IC50 was more than 1000 nM.

Regarding `Nc1nc(Cl)nc2c1ncn2[C@@H]1O[C@H](COC(C(=O)O)P(=O)(O)O)[C@@H](O)[C@H]1O` (single isomer, unassigned) [Example 61a], the IC50 is less than 100 nM.

For `CCOC(=O)[C@@H](OC[C@H]1C[C@@H](n2cnc3cccc(Cl)c3c2=O)[C@H](O)[C@@H]1O)P(=O)(O)O` (single isomer, unassigned) [Example 70a], the IC50 is more than 1000 nM.

Take `CCOC(=O)[C@@H](OC[C@H]1C[C@@H](n2cnc3cccc(Br)c3c2=O)[C@H](O)[C@@H]1O)P(=O)(O)O` (single isomer, unassigned) [Example 72a]: the IC50 is more than 1000 nM.

As for `CCOC(=O)[C@@H](OC[C@H]1C[C@@H](n2cnc3cccc(C#N)c3c2=O)[C@H](O)[C@@H]1O)P(=O)(O)O` (single isomer, unassigned) [Example 73a], the 50% inhibitory concentration (IC50) is more than 1000 nM.

`CCOC(=O)[C@@](CC(=O)O)(OC[C@H]1O[C@@H](n2cnc3c(N)nc(F)nc32)[C@H](O)[C@@H]1O)P(=O)(O)O` (single isomer, unassigned) [Example 79a]: the half-maximal inhibitory concentration (IC50) lay in the range of 100 to 1000 nM.

Take `CCOC(=O)C(OC[C@H]1O[C@@H](n2cnc3cc(Cl)c(Cl)cc32)[C@H](O)[C@@H]1O)P(=O)(O)O` (single isomer, unassigned) [Example 81]: the IC50 was more than 1000 nM.

In the case of `CCOC(=O)C(OC[C@H]1O[C@@H](n2cnc3cc(Cl)c(Cl)cc32)[C@H](O)[C@@H]1O)P(=O)(O)O` (single isomer, unassigned) [Example 81a], the half-maximal inhibitory concentration (IC50) was more than 1000 nM.

For the compound `CCOC(=O)C(OC[C@H]1O[C@@H](n2cnc3ccc(Cl)nc32)[C@H](O)[C@@H]1O)P(=O)(O)O` (single isomer, unassigned) [Example 87a], the IC50 was more than 1000 nM.

Consider `Nc1ncnc2c1ncn2[C@@H]1O[C@H](COC(C(=O)O)C(=O)O)[C@@H](O)[C@H]1O` [Example 8, 2-(((2R,3S,4R,5R)-5-(6-amino-9H-purin-9-yl)-3,4-dihydroxytetrahydrofuran-2-yl)methoxy)malonic acid], for which the IC50 was more than 1000 nM.

On to `CNC(=O)C(OC[C@H]1O[C@@H](n2ccc(=O)n(C)c2=O)[C@H](O)[C@@H]1O)P(=O)(O)O` (stereo partly drawn) [Example 31, (1-(((2R,3S,4R,5R)-3,4-dihydroxy-5-(3-methyl-2,4-dioxo-3,4-dihydropyrimidin-1(2H)-yl)tetrahydrofuran-2-yl)methoxy)-2-(methylamino)-2-oxoethyl)phosphonic Acid], for which the 50% inhibitory concentration (IC50) is more than 1000 nM.

`CCNC(=O)C(OC[C@H]1O[C@@H](n2ccc(=O)n(C)c2=O)[C@H](O)[C@@H]1O)P(=O)(O)O` (stereo partly drawn) [Example 32, (1-(((2R,3S,4R,5R)-3,4-dihydroxy-5-(3-methyl-2,4-dioxo-3,4-dihydropyrimidin-1(2H)-yl)tetrahydrofuran-2-yl)methoxy)-2-(ethylamino)-2-oxoethyl)phosphonic Acid]: the IC50 is more than 1000 nM.
